# In PubChem BioAssay (NCI):
# Where “and” joins values, the source holds several entries; their conditions need not be identical. Identical values can stand only once.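 Each compound was tested at five concentrations against cells in 96-well plates for 48 hours. GI50 is the concentration that inhibits growth by half. Definition used: TGI = concentration required for complete inhibition of growth.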
# Legend:
# Assay in all cases: NCI-60 cell line screen, 48 h
# [1] = tested on: K-562 leukemia
# [2] = tested on: MOLT-4 leukemia
# [3] = tested on: CCRF-CEM leukemia
# [4] = tested on: HL-60(TB) leukemia
# [5] = tested on: SK-OV-3 ovarian
# [6] = tested on: HCC-2998 colon
# [7] = tested on: SNB-75 CNS
# [8] = tested on: SNB-19 CNS
# [9] = tested on: TK-10 renal
# [10] = tested on: MDA-MB-435
# [11] = tested on: 786-0 renal
# [12] = tested on: BT-549 breast
# [13] = tested on: SF-539 CNS
# [14] = tested on: KM12 colon
# [15] = tested on: HOP-62 NSCLC
# [16] = tested on: HCT-15 colon
# [17] = tested on: SF-295 CNS
# [18] = tested on: COLO 205 colon
# [19] = tested on: HS 578T breast
# [20] = tested on: A549 NSCLC
# [21] = tested on: UACC-257 melanoma
# [22] = tested on: SK-MEL-5 melanoma
# [23] = tested on: DU-145 prostate
# [24] = tested on: T-47D breast
# [25] = tested on: LOX IMVI melanoma
# [26] = tested on: OVCAR-3 ovarian
# [27] = tested on: SK-MEL-28 melanoma
# [28] = tested on: SN12C renal
# [29] = tested on: NCI-H226 lung
# [30] = tested on: ACHN renal
# [31] = tested on: MCF7 breast
# [32] = tested on: SR leukemia
# [33] = tested on: MDA-MB-231 breast
# [34] = tested on: RXF 393 renal
# [35] = tested on: PC-3 prostate
# [36] = tested on: NCI-H522 lung
# [37] = tested on: UACC-62 melanoma
# [38] = tested on: SW-620 colon
# [39] = tested on: OVCAR-4 ovarian
# [40] = tested on: NCI/ADR-RES ovarian
# [41] = tested on: RPMI-8226 leukemia
# [42] = tested on: MALME-3M melanoma
# [43] = tested on: U251 CNS
# [44] = tested on: HT29 colon
# [45] = tested on: NCI-H23 lung
# [46] = tested on: HCT-116 colon
# [47] = tested on: MDA-N
# [48] = tested on: SK-MEL-2 melanoma
# [49] = tested on: A498 renal
# [50] = tested on: OVCAR-8 ovarian
# [51] = tested on: IGROV1 ovarian
# [52] = tested on: EKVX NSCLC
# [53] = tested on: M14 melanoma
# [54] = tested on: SF-268 CNS
# [55] = tested on: NCI-H460 lung
# [56] = tested on: HOP-92 NSCLC
# [57] = tested on: OVCAR-5 ovarian
# [58] = tested on: CAKI-1 renal
# [59] = tested on: UO-31 renal
smiles,measurement,setting,value
N=[N+]=NC1C(O)C(CO)OC1n1cnc2c(N)ncnc21 (stereo unspecified),TGI,[1],> 100 µM
same,TGI,[2],> 22.4 µM
same,TGI,[3],> 29.8 µM
same,TGI,[4],6.44 µM
same,TGI,[5],> 100 µM
same,TGI,[6],> 100 µM
same,TGI,[7],> 100 µM
same,TGI,[8],> 100 µM
same,TGI,[9],> 100 µM
same,TGI,[10],> 100 µM
same,TGI,[11],> 100 µM
same,TGI,[12],> 100 µM
same,TGI,[13],> 76.2 µM
same,TGI,[14],> 100 µM
same,TGI,[15],> 100 µM
same,TGI,[16],> 100 µM
same,TGI,[17],> 100 µM
same,TGI,[18],> 100 µM
same,TGI,[19],> 100 µM
same,TGI,[20],> 100 µM
same,TGI,[21],> 100 µM
same,TGI,[22],> 100 µM
same,TGI,[23],> 100 µM
same,TGI,[24],> 100 µM
same,TGI,[25],> 83.5 µM
same,TGI,[26],> 100 µM
same,TGI,[27],> 100 µM
same,TGI,[28],> 100 µM
same,TGI,[29],97.4 µM
same,TGI,[30],52.6 µM
same,TGI,[31],> 100 µM
same,TGI,[32],7 µM
same,TGI,[33],> 100 µM
same,TGI,[34],> 100 µM
same,TGI,[35],> 100 µM
same,TGI,[36],> 100 µM
same,TGI,[37],> 100 µM
same,TGI,[38],> 100 µM
same,TGI,[39],> 100 µM
same,TGI,[40],> 100 µM
same,TGI,[41],> 100 µM
same,TGI,[42],> 100 µM
same,TGI,[43],> 100 µM
same,TGI,[44],> 100 µM
same,TGI,[45],> 80 µM
same,TGI,[46],> 100 µM
same,TGI,[47],> 100 µM
same,TGI,[48],> 100 µM
same,TGI,[49],> 100 µM
same,TGI,[50],> 100 µM
same,TGI,[51],> 100 µM
same,TGI,[52],> 100 µM
same,TGI,[53],> 100 µM
same,TGI,[54],> 100 µM
same,TGI,[55],> 100 µM
same,TGI,[56],> 100 µM
same,TGI,[57],> 100 µM
same,TGI,[58],> 100 µM
same,TGI,[59],> 100 µM
C[C@@]12C(=O)OC(=O)[C@]1(C)[C@H]1CC[C@@H]2O1,GI50,[1],2.78 µM
same,TGI,[1],10.1 µM and 8.85 µM
same,GI50,[2],3.88 µM
same,TGI,[2],18 µM and 28.8 µM
same,GI50,[3],1.59 µM
same,TGI,[3],10.8 µM and 7.85 µM
same,GI50,[4],1.39 µM
same,TGI,[4],3.77 µM and 4.07 µM
same,GI50,[5],1.48 µM
same,TGI,[5],3.36 µM and 5.24 µM
same,GI50,[6],1.03 µM
same,TGI,[6],3 µM and 2.69 µM
same,GI50,[7],0.698 µM
same,TGI,[7],1.91 µM and 1.56 µM
same,GI50,[8],1.23 µM
same,TGI,[8],2.53 µM and 2.83 µM
same,GI50,[9],0.25 µM
same,TGI,[9],0.608 µM and 0.792 µM
same,GI50,[10],1.62 µM
same,TGI,[10],3.02 µM and 4.43 µM
same,GI50,[11],1.47 µM
same,TGI,[11],2.85 µM and 3.56 µM
same,TGI,[12],3.06 µM and 3.29 µM
same,GI50,[13],1.62 µM
same,TGI,[13],3.09 µM and 4.5 µM
same,GI50,[14],1.37 µM
same,TGI,[14],2.76 µM and 17.5 µM
same,GI50,[15],1.81 µM
same,TGI,[15],3.34 µM and 5.73 µM
same,GI50,[16],2.03 µM
same,TGI,[16],4.7 µM and 13.8 µM
same,TGI,[17],2.85 µM and 3.22 µM
same,TGI,[18],1.69 µM and 1.01 µM
same,GI50,[19],1.36 µM and 1.56 µM
same,TGI,[19],3 µM and 3.29 µM
same,GI50,[20],1.09 µM
same,TGI,[20],2.92 µM and 4.9 µM
same,GI50,[21],1.49 µM
same,TGI,[21],3.11 µM and 9.63 µM
same,GI50,[22],1.1 µM
same,TGI,[22],2.33 µM and 2.77 µM
same,GI50,[23],1.37 µM
same,TGI,[23],2.82 µM and 2.81 µM
same,GI50,[24],1.47 µM
same,TGI,[24],3.14 µM and 4.88 µM
same,GI50,[25],1.44 µM
same,TGI,[25],2.89 µM and 6.79 µM
same,GI50,[26],0.871 µM
same,TGI,[26],2.19 µM and 2.23 µM
same,GI50,[27],1.54 µM
same,TGI,[27],3 µM and 11.1 µM
same,GI50,[28],1.58 µM
same,TGI,[28],3.21 µM and 4.43 µM
same,GI50,[29],1.5 µM
same,TGI,[29],2.97 µM
same,TGI,[30],2.43 µM and 2.83 µM
same,TGI,[31],2.29 µM and 21.3 µM
same,GI50,[32],6.78 µM
same,TGI,[32],44.9 µM and 15.3 µM
same,GI50,[33],1.51 µM
same,TGI,[33],3.04 µM and 3.24 µM
same,TGI,[34],1.46 µM and 1.7 µM
same,GI50,[35],0.525 µM
same,TGI,[35],2.02 µM and 1.23 µM
same,GI50,[36],1.11 µM
same,TGI,[36],2.43 µM and 3.21 µM
same,GI50,[37],1.36 µM
same,TGI,[37],2.86 µM and 7.48 µM
same,GI50,[38],3.07 µM
same,TGI,[38],10.9 µM and 16.6 µM
same,GI50,[39],1.79 µM
same,TGI,[39],3.88 µM and 8.61 µM
same,GI50,[40],1.87 µM
same,TGI,[40],4.94 µM and 25.5 µM
same,GI50,[41],3.15 µM
same,TGI,[41],18.2 µM and 6.29 µM
same,GI50,[42],1.5 µM
same,TGI,[42],2.99 µM and 3.08 µM
same,TGI,[43],2.64 µM and 2.91 µM
same,TGI,[44],3.43 µM and 5.93 µM
same,GI50,[45],2.79 µM
same,TGI,[45],11.4 µM and 20.6 µM
same,TGI,[46],4.38 µM and 4.91 µM
same,GI50,[47],1.29 µM
same,TGI,[47],2.67 µM and 9.02 µM
same,GI50,[48],1.26 µM
same,TGI,[48],2.77 µM and 3.38 µM
same,GI50,[49],1.47 µM
same,TGI,[49],2.84 µM and 2.69 µM
same,GI50,[50],2.1 µM
same,TGI,[50],4.93 µM and 18 µM
same,GI50,[51],1.8 µM
same,TGI,[51],3.82 µM and 7.78 µM
same,GI50,[52],0.556 µM
same,TGI,[52],1.76 µM and 1.9 µM
same,TGI,[53],2.87 µM and 3.48 µM
same,GI50,[54],0.477 µM
same,TGI,[54],1.75 µM and 3.85 µM
same,GI50,[55],2.45 µM
same,TGI,[55],10.3 µM and 9.87 µM
same,GI50,[56],0.846 µM
same,TGI,[56],2.2 µM and 2.96 µM
same,GI50,[57],1.3 µM
same,TGI,[57],3.46 µM and 7.72 µM
same,TGI,[58],2.11 µM and 2.29 µM
same,GI50,[59],1.51 µM
same,TGI,[59],2.85 µM and 7.06 µM
